The text below walks through data of PMC11021760, “Quantum-assisted fragment-based automated structure generator (QFASG) for small molecule design: an in vitro study” (Frontiers in Chemistry, 2024).

Common to all, as to format: biochemical
The target of one test is T1, CaMKK2 (h) (Homo sapiens, UniProt Q96RR4).
T1 construct: purchased DiscoverX/Eurofins
Nature of the test: CAMKK2 kinase activity assay (DiscoverX/Eurofins, radiometric [gamma-33P]-ATP). To be noted: ATP concentration of 10 µM. How it is done: The assay is available as a product of DiscoverX/Eurofins. CaMKK2 (h) was incubated with 20 mM Tris/HCl pH 8.5, 0.2 mM EDTA, 0.5% BSA, 0.5 mM CaCl2, 0.016 mg/mL calmodulin, 150 µM […], 10 mM MgAcetate and [gamma-33P]-ATP (specific activity and concentration of 10 µM). The reaction was initiated by the addition of the Mg/ATP mix. After incubation for 40 min 13 at room temperature, the reaction was stopped by the addition of phosphoric acid to a concentration of 0.5%. An aliquot of the reaction was then spotted onto a filter and washed four times for 4 min in 0.425% phosphoric acid and once in methanol prior to drying and scintillation counting.

Another test deals with T2, ATM (h) (Homo sapiens, UniProt Q13315).
T2 construct: purchased DiscoverX/Eurofins
Nature of the test: ATM kinase activity assay (DiscoverX/Eurofins, HTRF). The following applies: ATP 10 µM; for remaining activity at 10 µM: compound at 10 μM, read-out: ATM residual activity at 10μM. How it is done: (§1) The assay is available as a product of DiscoverX/Eurofins. ATM (h) was incubated in assay buffer containing 30 nM GST-cMyc-p53 and Mg/ATP (concentration of 10 µM). The reaction is initiated by the addition of the Mg/ATP mix. After incubation for 30 min at room temperature, the reaction was stopped by the addition of stop solution containing EDTA. Finally, detection buffer was added, which contained a d2-labelled anti-GST monoclonal antibody and a europium-labelled anti-phospho Ser15 antibody against phosphorylated p53. The plate was then read in time-resolved fluorescence mode, and the homogeneous time-resolved fluorescence (HTRF) signal is determined according to the formula HTRF = 10000 x (Em665 nm/Em620 nm).
Background: In TR-FRET formats the signal depends on donor and acceptor labels being close together.

A further test deals with T3, DNA-PK (h) (Homo sapiens, UniProt P78527).
T3 construct: purchased DiscoverX/Eurofins
The test can be described thus: DNA-PK kinase activity assay (DiscoverX/Eurofins, HTRF). To be noted: ATP 10 µM. How it is done: as §1, with “DiscoverX/Eurofins. DNA-PK” for “DiscoverX/Eurofins. ATM”, “containing 50” for “containing 30”, “plate is” for “plate was”, “= 10,000 ×” for “= 10000 x”

Another test concerns the target T4, ATR/ATRIP (h) (Homo sapiens, UniProt Q13535).
T4 construct: purchased DiscoverX/Eurofins
Nature of the test: ATR kinase activity assay (DiscoverX/Eurofins, HTRF). To be noted: ATP 10 µM. The method, then: as §1, with “DiscoverX/Eurofins. ATR/ATRIP” for “DiscoverX/Eurofins. ATM”, “containing 50” for “containing 30”, “reaction was” for “reaction is”, “plate is” for “plate was”, “signal was” for “signal is”, “= 10,000 ×” for “= 10000 x”

The structures appear in SMILES notation.

T2 sequence (Q13315 whole entry): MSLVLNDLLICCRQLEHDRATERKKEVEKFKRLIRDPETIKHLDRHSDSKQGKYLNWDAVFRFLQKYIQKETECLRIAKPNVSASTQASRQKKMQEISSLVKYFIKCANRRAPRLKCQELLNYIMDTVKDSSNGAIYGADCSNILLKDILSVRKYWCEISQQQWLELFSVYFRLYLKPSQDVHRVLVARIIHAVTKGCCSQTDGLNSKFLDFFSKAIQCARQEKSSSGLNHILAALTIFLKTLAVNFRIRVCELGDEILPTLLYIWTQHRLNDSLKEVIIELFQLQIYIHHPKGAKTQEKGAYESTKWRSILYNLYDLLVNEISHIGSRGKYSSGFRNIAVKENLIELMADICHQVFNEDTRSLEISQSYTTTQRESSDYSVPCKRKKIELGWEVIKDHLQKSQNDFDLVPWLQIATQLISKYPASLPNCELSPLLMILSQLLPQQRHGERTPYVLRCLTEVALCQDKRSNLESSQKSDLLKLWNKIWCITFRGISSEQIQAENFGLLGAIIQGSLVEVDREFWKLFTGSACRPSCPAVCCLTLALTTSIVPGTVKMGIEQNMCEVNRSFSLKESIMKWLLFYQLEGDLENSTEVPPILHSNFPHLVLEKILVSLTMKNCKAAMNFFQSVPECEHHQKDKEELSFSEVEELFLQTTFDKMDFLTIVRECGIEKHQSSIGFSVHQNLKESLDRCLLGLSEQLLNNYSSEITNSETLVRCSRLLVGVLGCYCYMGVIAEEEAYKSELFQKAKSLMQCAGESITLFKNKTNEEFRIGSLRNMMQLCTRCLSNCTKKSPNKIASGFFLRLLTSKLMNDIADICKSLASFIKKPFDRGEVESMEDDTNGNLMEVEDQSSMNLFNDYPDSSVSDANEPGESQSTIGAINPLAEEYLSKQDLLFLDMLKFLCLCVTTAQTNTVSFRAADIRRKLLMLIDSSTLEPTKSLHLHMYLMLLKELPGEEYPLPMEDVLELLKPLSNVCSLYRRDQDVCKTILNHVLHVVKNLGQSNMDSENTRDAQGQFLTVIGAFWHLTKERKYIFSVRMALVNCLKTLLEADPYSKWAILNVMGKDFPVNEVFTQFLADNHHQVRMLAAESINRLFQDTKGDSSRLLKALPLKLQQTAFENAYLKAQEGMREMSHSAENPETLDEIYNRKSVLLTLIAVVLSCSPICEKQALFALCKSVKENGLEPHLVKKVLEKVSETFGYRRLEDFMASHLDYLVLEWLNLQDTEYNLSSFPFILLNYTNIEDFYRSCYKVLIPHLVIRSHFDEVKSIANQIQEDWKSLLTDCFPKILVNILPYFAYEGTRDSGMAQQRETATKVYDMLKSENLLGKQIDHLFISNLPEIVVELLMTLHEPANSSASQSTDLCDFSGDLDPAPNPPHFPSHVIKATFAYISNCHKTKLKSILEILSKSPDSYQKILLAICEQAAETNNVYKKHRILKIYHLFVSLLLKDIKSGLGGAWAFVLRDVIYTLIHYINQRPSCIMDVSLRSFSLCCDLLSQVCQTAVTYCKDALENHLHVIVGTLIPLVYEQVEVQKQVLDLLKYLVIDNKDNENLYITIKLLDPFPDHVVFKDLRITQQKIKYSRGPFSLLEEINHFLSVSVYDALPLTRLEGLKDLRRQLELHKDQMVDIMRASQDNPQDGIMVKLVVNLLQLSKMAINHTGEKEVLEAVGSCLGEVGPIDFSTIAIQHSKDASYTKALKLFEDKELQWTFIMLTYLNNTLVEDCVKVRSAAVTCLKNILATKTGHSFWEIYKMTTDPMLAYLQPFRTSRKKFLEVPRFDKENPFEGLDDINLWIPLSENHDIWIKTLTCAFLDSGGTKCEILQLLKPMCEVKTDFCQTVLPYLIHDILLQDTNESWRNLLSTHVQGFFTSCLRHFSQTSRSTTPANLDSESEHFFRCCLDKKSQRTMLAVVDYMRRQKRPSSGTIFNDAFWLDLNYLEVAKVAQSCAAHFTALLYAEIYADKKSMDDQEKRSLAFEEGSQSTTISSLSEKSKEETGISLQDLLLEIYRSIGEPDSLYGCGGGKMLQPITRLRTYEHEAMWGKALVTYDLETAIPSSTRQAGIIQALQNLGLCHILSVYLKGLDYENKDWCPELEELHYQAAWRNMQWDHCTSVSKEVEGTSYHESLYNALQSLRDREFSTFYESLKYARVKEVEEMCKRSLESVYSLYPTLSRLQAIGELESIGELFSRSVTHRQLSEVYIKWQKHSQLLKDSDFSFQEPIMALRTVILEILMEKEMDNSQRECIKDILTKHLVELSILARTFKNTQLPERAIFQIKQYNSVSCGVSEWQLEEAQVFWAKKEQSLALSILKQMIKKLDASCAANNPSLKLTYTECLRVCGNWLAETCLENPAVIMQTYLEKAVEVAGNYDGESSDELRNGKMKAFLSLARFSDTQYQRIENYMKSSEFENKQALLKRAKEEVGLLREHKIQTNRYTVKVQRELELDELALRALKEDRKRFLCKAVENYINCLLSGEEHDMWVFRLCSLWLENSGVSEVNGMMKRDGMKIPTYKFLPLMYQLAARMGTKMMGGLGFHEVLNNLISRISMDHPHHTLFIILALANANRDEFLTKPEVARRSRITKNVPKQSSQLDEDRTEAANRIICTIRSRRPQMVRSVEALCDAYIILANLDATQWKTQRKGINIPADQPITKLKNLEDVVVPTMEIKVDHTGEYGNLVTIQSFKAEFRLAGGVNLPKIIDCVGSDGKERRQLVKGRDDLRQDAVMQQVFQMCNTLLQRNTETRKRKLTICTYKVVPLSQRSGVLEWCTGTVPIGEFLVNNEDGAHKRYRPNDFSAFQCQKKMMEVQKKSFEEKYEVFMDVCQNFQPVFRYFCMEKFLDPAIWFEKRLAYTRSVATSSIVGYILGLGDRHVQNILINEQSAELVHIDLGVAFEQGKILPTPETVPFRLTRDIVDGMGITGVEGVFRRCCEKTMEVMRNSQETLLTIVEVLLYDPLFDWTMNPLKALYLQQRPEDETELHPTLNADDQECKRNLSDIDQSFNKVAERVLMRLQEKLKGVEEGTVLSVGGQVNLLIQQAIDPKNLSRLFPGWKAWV

The IC50 is the concentration at which inhibition is half-maximal. A low value points to higher potency. Turning to `CC(=O)c1cn(-c2ccn3ncc(-c4cccc(C(=O)C5CNC5)c4)c3n2)cn1` [QFASG-1], the IC50 against CaMKK2 (h) was above 10 µM.
Regarding `CC(=O)c1ccc(-c2cnn3ccc(C(N)=O)nc23)cc1` [QFASG-2], at CaMKK2 (h), the midpoint of inhibition, the IC50, lay at 3 µM and the “hill slope (CAMKK2 dose-response)” value is reported as −0.85.
`CNC(=O)Nc1ccc(-c2ccn3ncc(-c4c[nH]c(C#N)n4)c3n2)cc1` [QFASG-3]: at CaMKK2 (h), the IC50 stood at 6 µM and the “hill slope (CAMKK2 dose-response)” value is listed as −1.05.
With `Cc1cc(N(C)c2ccc3ncc(NCC(=O)O)cc3c2)n(C2CC2)n1` [QFASG-4], the remaining activity at 10 µM at ATM (h) came to 98%.
Same read-out and setting: as for `Cn1cc(-c2ccc3ncc(NC(=O)Nc4cccc(F)c4F)cc3c2)cn1` [QFASG-5], the figure is 71%.
`N#Cc1ccc2ncc(NC(=O)Nc3cccnc3)cc2c1` [QFASG-6, 1-(6-cyanoquinolin-3-yl)-3-(pyridin-3-yl) urea]: at ATM (h), inhibition was half-maximal at 4 µM (IC50), the “hill slope (ATM dose-response)” value is −1.1 and the remaining activity at 10 µM came out at 31%. At DNA-PK (h), the IC50 came to 8 µM and the “hill slope (DNA-PK dose-response)” value is reported as −0.85. Further, at ATR/ATRIP (h), the “ATR inhibition (in words)” value is reported as “no ATR inhibition was observed” and the IC50 is above 10 µM.
